Laboratory results from article PMC11783601, “Analogue-Sensitive Inhibition of Histone Demethylases Uncovers Member-Specific Function in Ribosomal Protein Synthesis” (Journal of the American Chemical Society, 2025).

Tests used:
Type in all cases: biochemical
KDM6B = target: T1, KDM6B (Homo sapiens, UniProt O15054); test: MALDI-based assay for KDM6B on H3K27me3 peptide; conditions: MALDI-TOF
T1 construct: The plasmid construct for the catalytic domain of wild type KDM6B; 6xHis (N); made in house; host or cells: E. coli Rosetta [DE3]
T1 sequence (O15054 1339-1502 limits assumed): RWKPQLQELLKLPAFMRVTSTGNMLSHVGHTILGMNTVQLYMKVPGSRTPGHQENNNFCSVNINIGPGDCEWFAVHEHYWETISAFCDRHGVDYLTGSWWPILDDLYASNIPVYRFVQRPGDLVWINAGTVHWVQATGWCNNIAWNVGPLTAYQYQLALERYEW
Protocol: (NH4)2Fe(SO4)2, 1 mM L-ascorbic acid, 1 mM NAD+, 200 nM FDH, and 1 µM KDM4A) in varying concentrations (0-10 µM). The experiments were performed in 384-well white Corning plates. The fluorescence intensity was measured with excitation = 340 nm and emission = 490 nm on a TECAN Infinite M1000Pro. Triplicate values were taken for each concentration.
The set up and analysis for IC50 of L-Leu NOG against KDM4A F185A enzyme was similar to that described in the coupled fluorescence assay section, but adjusted to function as an end point […]
2 mM L-ascorbic acid, 1 mM NAD+, 200 nM FDH, 3 µM wild type KDM4A or KDM4A-F185A, and varying concentration of compounds (NOGs 6, 9 and 10) and a substrate cocktail (200 µM 2OG and 60 µM H3K9me3 peptide). Different concentrations of NOG 6 were measured at one […]
For 9 and 10, the same set-up remained, but enzymatic activity was measured via MALDI-TOF analysis, and relative activity and inhibition was calculated for different NOG concentrations as described above. […]
equivalent volume of water in 10 µL aliquots. […] The sample was ionized with Bruker FlexControl in the reflectron positive mode and analyzed on Bruker FlexAnalysis software. The percent demethylated peptide was calculated by first multiplying the K27me1 peak by 2 and the K27me0 peak by 3 to account for the multiple […]
(§1) the reflectron positive mode and analyzed on Bruker FlexAnalysis software. […]

KDM8 (JMJD5) = target: T2, KDM8 (JMJD5) (Homo sapiens, UniProt Q8N371); test: MALDI-TOF assay for JMJD5 arginine hydroxylation of peptide; conditions: peptide substrate
T2 construct: we recombinantly expressed the catalytic domains of 12 wild type dioxygenases; made in house
T2 sequence (Q8N371 271-416 limits assumed): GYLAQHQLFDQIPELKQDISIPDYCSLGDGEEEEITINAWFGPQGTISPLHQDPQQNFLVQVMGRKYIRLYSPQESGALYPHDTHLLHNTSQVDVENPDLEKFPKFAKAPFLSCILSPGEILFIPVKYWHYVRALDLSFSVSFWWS

MINA = target: T3, MINA (Homo sapiens, UniProt Q8IUF8); test: MALDI-based assay for MINA histidyl hydroxylation of peptide; conditions: MALDI-TOF, peptide substrate
T3 construct: we recombinantly expressed the catalytic domains of 12 wild type dioxygenases; His-TEV (N); host or cells: E. coli BL21 (DE3)
T3 sequence (Q8IUF8 139-271 limits assumed): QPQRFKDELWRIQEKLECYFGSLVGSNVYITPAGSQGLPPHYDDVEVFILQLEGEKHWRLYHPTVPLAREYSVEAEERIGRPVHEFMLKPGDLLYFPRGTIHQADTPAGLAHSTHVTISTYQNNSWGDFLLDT
Protocol: MALDI-based assay for C14orf169 (NO66) and MINA: To monitor the enzymatic activity of
C14orf169 and MINA recombinant proteins, previous methods were utilized.10-11 Briefly, 10 µM
each recombinant protein was incubated with 10 µM peptide substrate (NH2-
Ascorbic Acid, 100 µM Iron (II), 50mM HEPES pH 7.5, and 200 µM L-Leu NOG or equivalent
volume of water in 10 µL water. Aliquots were kept on ice for 10 minutes before addition of 200
µM 2OG or equivalent volume of water. After 30-60 minutes incubation at 37 °C, 1 µL sample and
1 µL S-DHB matrix were spotted on a MALDI plate and monitored with Bruker FlexControl in
as §1

CC(C)CC(NC(=O)C(=O)O)C(=O)O (stereo not drawn) [compound 6, N-oxalyl leucine]
No inhibition: inhibition of KDM6B (KDM6B) | inhibition of JMJD5 (KDM8 (JMJD5)) | inhibition of MINA (MINA)
